# Source: patent US11214772B2, “Production method for retinal tissue” (SUMITOMO DAINIPPON PHARMA CO., LTD., priority 2014, dated 2022)
# Experiments:
# [1] = tested on: human iPS cells (DSPC-3 strain); experiment: Bright field observation of cell aggregates in suspension culture (neuroepithelium formation); assay type: cell-based; details: Example 8; StemFit; SAG 300 nM day 0; day 22
# Protocol: The thus-prepared subconfluent human iPS cells were treated with the cell dispersion solution by using TrypLE Select (manufactured by Life Technologies), further dispersed into single cells by pipetting operation, and the above human iPS cells dispersed into single cells were suspended in 100 μl of a serum-free medium at 1.2×10^4 cells per well of a non-cell-adhesive 96-well culture plate (SUMILON SPHEROID V-bottom plate PrimeSurface 96V-bottom plate, SUMITOMO BAKELITE). Thereafter, the cells were subjected to suspension culturing at 37° C., 5% CO2. As the serum-free medium (gfCDM+KSR) therefor, a serum-free medium which is a 1:1 mixture of F-12 medium and IMDM medium supplemented with 10% KSR, 450 μM 1-monothioglycerol, 1× Chemically defined lipid concentrate was used. At the time of the start of suspension culturing (day 0 after the start of suspension culturing, start of step 2), the above serum-free medium supplemented with Y27632 (final concentration 20 μM) and further supplemented with SAG as an exogenous Shh signal transduction pathway activating substance (final concentration 300 nM), or not supplemented with SAG (final concentration 0 nM) was used (FIG. 10). On day 2 after the start of suspension culturing, cell aggregates were formed. […]
# [2] = tested on: human iPS cells (201B7 strain); experiment: Immunostaining of aggregate frozen sections for retinal tissue markers Chx10 and Rx; assay type: cell-based; parameters: proportion of Chx10-positive cells: dose or concentration left out as unconfirmed; details: Example 3, Essential 8, SAG day 0, day 18
# From the text: Cell aggregates on day 18 after the start of suspension culturing were fixed with 4% para-formaldehyde to produce frozen sections. These frozen sections were immunostained for Chx10 (anti-Chx10 antibody, Exalpha, sheep), which is one of the retinal tissue markers, or Rx (anti-Rx antibody, manufactured by TAKARA, guinea pig), which is one of the retinal tissue markers.
# Cell aggregates on day 18 after the start of suspension culturing were fixed with 4% para-formaldehyde to produce frozen sections. These frozen sections were immunostained for Chx10 (anti-Chx10 antibody, Exalpha, sheep), which is one of the retinal tissue markers.
smiles,measurement,setting,value
CNC1CCC(N(Cc2cccc(-c3ccncc3)c2)C(=O)c2sc3ccccc3c2Cl)CC1 (stereo not shown) [SAG],aggregate shape and neuroepithelium formation (bright field),[1],"cell aggregates were maintained, and neuroepithelium was formed"
same,proportion of Rx-positive cells in the total cells,[2]; BMP4 1.5 nM day 6,not less than 40%
same,proportion of Chx10-positive cells,[2]; no BMP4,not more than 3%
same,proportion of Rx-positive cells in the total cells,[2]; no BMP4,not more than 3%
